Laboratory results taken from patent US7829754B2, “Method of cleaning heavy metals-containing soil” (Chubu Electric Power Co., Inc., priority 2004, dated 2010).
Like-named read-outs stand apart in the source and are kept apart here.

Experiments:
[1] = assay type: physicochemical
Experimental: <Experiment 1. Test of Comparing Lead Dissolving Out Ability of Chelating Agent>
In order to study a kind of a chelating agent to be added to a contaminated soil, the lead dissolving out abilities of 26 types of chelating agents (chelate reagents) were compared (FIG. 2).
2) Chelating agent: Each chelating agent of 100 mmol·dm^−3 and pH 5.8 was prepared.
3) Five grams of 1) the subject soil and 50 ml of 2) the chelating agent were put into to a 100 ml vessel, and shaken (200 times/min) at 20° C. for 6 hours. Repeated cycle was 3.
4) For comparison, a contrast section was prepared, in which desalted water was added instead of the chelating agent in the 3).
5) After shaking, the sample after filtration was centrifuged at 15000 rpm for 5 minutes, and the supernatant liquid was further centrifuged again under the same condition.
6) From the separated supernatant liquid, a lead concentration was measured with an inductively coupled high frequency plasma spectrometry (ICP) device.

[2] = tested on: Fagopyrum esculentum; details: for Leaf dry weight / Stem dry weight / Stem lead concentration / Terrestrial dry weight / Terrestrial part lead accumulation amount / Terrestrial part lead concentration / Terrestrial lead accumulated amount, fold of EDTA-2Na at the same concentration / Terrestrial lead accumulated amount, fold of contrast section: soil B; for Leaf lead concentration: soil B (lead 13032 mg/kg), added one week before harvesting; for addition effect on lead concentration in stems / addition effect on lead concentration in leaves: 10, 20 mmol/kg soil; for addition effect on lead concentration in stems: contrast section 2043 mg/kg; for addition effect on lead concentration in leaves: contrast section 7971 mg/kg
Experimental: A lead concentration in a soil or a plant body was analyzed using ICP-AES (inductively coupled plasma-atomic emission spectrometry) regarding a sample obtained by adding nitric acid and degrading this with a microwave.
A cultivating experiment was conducted as follows: in which Fagopyrum esculentum and Brassica juncca were cultivated in a lead-containing soil filled in a Wagnel pot, a chelating agent was further added to the soil, and a difference in a lead accumulating amount depending on the cultivating condition was examined.
In addition, considering influence on plants and environment such as a salt concentration damage, 1, 5, 10 and 20 mmol kg^−1 soil of chemical reagents were adopted as an addition concentration, and 300 ml/pot (soil 3 kg) was provided as an addition amount.
1) Test plant: Fagopyrum esculentum, trade name (Milkyway), Brassica juncea
2) Test soil: Soil B (sampled from an old firing range site, soil lead concentration 13032 mg/kg), contrast sample (mountain sand in Gifu Prefecture of Japan, soil lead concentration 21 mg/kg)

[3] = tested on: Fagopyrum esculentum; assay: Fagopyrum esculentum growth situation after addition of chelating agent
Experimental: 3) The soil B (3 kg) and the contrast section soil (4.3 kg) which had been passed through a sieve (2 mm) were mixed with urea (N: 69 mg/kg soil), calcium superphosphate (P: 75 mg/kg soil), potassium chloride (K: 72 mg/kg soil), and magnesia lime (Mg: 67 mg/kg soil), and sufficiently stirred. 4) The test soil was filled into a Wagnel pot (1/5000a), and a plant was seeded (3 pits/pot, 3 grains/pit). 5) Four to five days after germination, the plant was thinned out to 3 individuals/pot. 6) Cultivation in a gross chamber (Environmental Condition) Temperature: 25° C.×12 h (8:00-20:00), 20° C.×12 h (20:00-8:00) Humidity: 60% Illumination: light condition (8:00-20:00), dark condition (20:00-8:00) Illuminance: 98001×, 180μ mmol˜m^−2·s^−1 7) Aspersion was performed at 100 ml/pot every day. 8) During a test term, a position of a pot was changed four times. 9) Individuals which were about to fall were induced by a support post. 10) One week before harvesting, a chelating agent at each concentration was added to the soil B. An addition amount was 300 ml/pot, and the chelating agent was carefully added to a surface of the soil so that the chelating agent was not contacted with the plant. On the day before addition of the chelating agent and on the day of addition, aspersion was not performed. […] 12) Repeated cycles in all sections were 3 (3 pots/test section).

[4] = chelating agent 100 mmol·dm^−3, pH 5.8, Soil A, shaken at 20° C. for 6 hours, FIG. 2
[5] = chelating agent 10 mmol/kg soil
[6] = chelating agent 20 mmol/kg soil
[7] = per unit area, calculated, chelating agent 1 mmol/kg soil
[8] = per unit area, calculated, chelating agent 5 mmol/kg soil
[9] = per unit area, calculated, chelating agent 10 mmol/kg soil
[10] = per unit area, calculated, chelating agent 20 mmol/kg soil
[11] = four days after addition, 1 mmol/kg soil
[12] = four days after addition, 5 mmol/kg soil
[13] = four days after addition, 10 mmol/kg soil
[14] = four days after addition, 20 mmol/kg soil
[15] = two days after addition, 20 mmol/kg soil

## O=C([O-])CC(O)(CC(=O)[O-])C(=O)[O-].[Na+].[Na+].[Na+] [Sodium citrate, sodium citrate]
[1]; [4]
  lead dissolving out ability: not so much higher than the aforementioned biodegradable chelating agents
[1]; pH 5.8
  lead dissolving out ability: high lead dissolving out ability
[2]; chelating agent 1 mmol/kg soil
  Leaf dry weight: 0.9090 g/plant
  Stem dry weight: 1.9892 g/plant
  Stem lead concentration: 1815 mg/kg
  Terrestrial dry weight: 2.8982 g/plant
  Terrestrial part lead accumulation amount: 0.0121 g/plant
  Terrestrial part lead concentration: 4169 mg/kg
  Leaf lead concentration: 9320 mg/kg
[2]; chelating agent 5 mmol/kg soil
  Leaf dry weight: 1.0308 g/plant
  Stem dry weight: 1.6837 g/plant
  Stem lead concentration: 1671 mg/kg
  Terrestrial dry weight: 2.7145 g/plant
  Terrestrial part lead accumulation amount: 0.0101 g/plant
  Terrestrial part lead concentration: 3732 mg/kg
  Leaf lead concentration: 7099 mg/kg
[2]; [5]
  Leaf dry weight: 0.7356 g/plant
  Stem dry weight: 1.7669 g/plant
  Stem lead concentration: 1524 mg/kg
  Terrestrial dry weight: 2.5025 g/plant
  Terrestrial part lead accumulation amount: 0.0080 g/plant
  Terrestrial part lead concentration: 3191 mg/kg
  Leaf lead concentration: 7195 mg/kg
[2]; [6]
  Leaf dry weight: 0.8797 g/plant
  Stem dry weight: 1.9099 g/plant
  Stem lead concentration: 2286 mg/kg
  Terrestrial dry weight: 2.7896 g/plant
  Terrestrial part lead accumulation amount: 0.0134 g/plant
  Terrestrial part lead concentration: 4806 mg/kg
  Leaf lead concentration: 10270 mg/kg
[2]; [7]
  Terrestrial part lead accumulation amount: 1.82 g/m^2
[2]; [8]
  Terrestrial part lead accumulation amount: 1.52 g/m^2
[2]; [9]
  Terrestrial part lead accumulation amount: 1.20 g/m^2
[2]; [10]
  Terrestrial part lead accumulation amount: 2.01 g/m^2
[3]; [11]
  Discoloration of leaf (number of individuals for which symptom was observed): 5
[3]; [12]
  Discoloration of leaf (number of individuals for which symptom was observed): 2
[3]; [13]
  Discoloration of leaf (number of individuals for which symptom was observed): 4
  Leaf drop (number of individuals for which symptom was observed): 2
  Wilting of leaf (number of individuals for which symptom was observed): 4
[3]; [14]
  Discoloration of leaf (number of individuals for which symptom was observed): 5
  Wilting of leaf (number of individuals for which symptom was observed): 6

## O=C([O-])CC(NCCNC(CC(=O)O)C(=O)[O-])C(=O)[O-].[Na+].[Na+].[Na+] (stereo not shown) [EDDS·3Na, disodium ethylenediamine succinate]
[1]; pH 5.8
  lead dissolving out ability: high lead dissolving out ability

## disodium ethylenediamine tetraacetate [EDTA · 2Na, reference compound]
[1]; [4]
  lead dissolving out ability: high lead dissolving out ability
[2]
  addition effect on lead concentration in stems: high addition effect
  addition effect on lead concentration in leaves: high addition effect
[2]; chelating agent 1 mmol/kg soil
  Leaf dry weight: 0.9799 g/plant
  Stem dry weight: 1.7240 g/plant
  Stem lead concentration: 1791 mg/kg
  Terrestrial dry weight: 2.7039 g/plant
  Terrestrial part lead accumulation amount: 0.0106 g/plant
  Terrestrial part lead concentration: 3926 mg/kg
  Leaf lead concentration: 7683 mg/kg
[2]; chelating agent 5 mmol/kg soil
  Leaf dry weight: 1.0307 g/plant
  Stem dry weight: 2.0750 g/plant
  Stem lead concentration: 2288 mg/kg
  Terrestrial dry weight: 3.1057 g/plant
  Terrestrial part lead accumulation amount: 0.0157 g/plant
  Terrestrial part lead concentration: 5045 mg/kg
  Leaf lead concentration: 10595 mg/kg
[2]; [5]
  Leaf dry weight: 0.9617 g/plant
  Stem dry weight: 1.8899 g/plant
  Stem lead concentration: 3376 mg/kg
  Terrestrial dry weight: 2.8516 g/plant
  Terrestrial part lead accumulation amount: 0.0244 g/plant
  Terrestrial part lead concentration: 8564 mg/kg
  Leaf lead concentration: 18758 mg/kg
[2]; [6]
  Leaf dry weight: 0.6389 g/plant
  Stem dry weight: 1.4969 g/plant
  Stem lead concentration: 8947 mg/kg
  Terrestrial dry weight: 2.1358 g/plant
  Terrestrial part lead accumulation amount: 0.0328 g/plant
  Terrestrial part lead concentration: 15335 mg/kg
  Leaf lead concentration: 30303 mg/kg
[2]; [7]
  Terrestrial part lead accumulation amount: 1.59 g/m^2
[2]; [8]
  Terrestrial part lead accumulation amount: 2.36 g/m^2
[2]; [9]
  Terrestrial part lead accumulation amount: 3.66 g/m^2
[2]; [10]
  Terrestrial part lead accumulation amount: 4.92 g/m^2
[3]; [11]
  Discoloration of leaf (number of individuals for which symptom was observed): 3
[3]; [12]
  Discoloration of leaf (number of individuals for which symptom was observed): 4
  Leaf drop (number of individuals for which symptom was observed): 1
  Wilting of leaf (number of individuals for which symptom was observed): 1
[3]; [13]
  Discoloration of leaf (number of individuals for which symptom was observed): 6
  Wilting of leaf (number of individuals for which symptom was observed): 2
[3]; [14]
  Discoloration of flower (number of individuals for which symptom was observed): 9
  Discoloration of leaf (number of individuals for which symptom was observed): 9
  Leaf drop (number of individuals for which symptom was observed): 2
  Wilting of leaf (number of individuals for which symptom was observed): 9
  yellow leaves, spotting and discoloration of leaves, and discoloration of a flower: confirmed in all individuals
[3]; [15]
  discoloration of leaves: discoloration of leaves was observed

## N[C@@H](CS)C(=O)O [L-cysteine]
[1]; [4]
  lead dissolving out ability: high lead dissolving out ability

## O=C(O)CC(O)(CC(=O)O)C(=O)O [citric acid]
[1]; pH 5.8
  lead dissolving out ability: high lead dissolving out ability

## CC(C(=O)[O-])N(CC(=O)[O-])CC(=O)[O-].[Na+].[Na+].[Na+] (stereo not shown) [MGDA · 3Na, trisodium methylglycine diacetate]
[1]; [4]
  lead dissolving out ability: high lead dissolving out ability
[2]; 10 mmol/kg soil
  Terrestrial lead accumulated amount, fold of EDTA-2Na at the same concentration: 1.6 fold
  Terrestrial lead accumulated amount, fold of contrast section: 3.4 fold
[2]; 20 mmol/kg soil
  Terrestrial lead accumulated amount, fold of EDTA-2Na at the same concentration: 1.3 fold
  Terrestrial lead accumulated amount, fold of contrast section: 3.7 fold
[2]
  addition effect on lead concentration in stems: high addition effect
  addition effect on lead concentration in leaves: high addition effect
[2]; chelating agent 1 mmol/kg soil
  Leaf dry weight: 0.9422 g/plant
  Stem dry weight: 1.9496 g/plant
  Stem lead concentration: 2310 mg/kg
  Terrestrial dry weight: 2.8918 g/plant
  Terrestrial part lead accumulation amount: 0.0130 g/plant
  Terrestrial part lead concentration: 4484 mg/kg
  Leaf lead concentration: 8981 mg/kg
[2]; chelating agent 5 mmol/kg soil
  Leaf dry weight: 0.8863 g/plant
  Stem dry weight: 1.8543 g/plant
  Stem lead concentration: 2384 mg/kg
  Terrestrial dry weight: 2.7406 g/plant
  Terrestrial part lead accumulation amount: 0.0156 g/plant
  Terrestrial part lead concentration: 5690 mg/kg
  Leaf lead concentration: 12607 mg/kg
[2]; [5]
  Leaf dry weight: 0.7343 g/plant
  Stem dry weight: 1.5023 g/plant
  Stem lead concentration: 10098 mg/kg
  Terrestrial dry weight: 2.2366 g/plant
  Terrestrial part lead accumulation amount: 0.0399 g/plant
  Terrestrial part lead concentration: 17858 mg/kg
  Leaf lead concentration: 33735 mg/kg
[2]; [6]
  Leaf dry weight: 0.5582 g/plant
  Stem dry weight: 1.3716 g/plant
  Stem lead concentration: 16437 mg/kg
  Terrestrial dry weight: 1.9298 g/plant
  Terrestrial part lead accumulation amount: 0.0441 g/plant
  Terrestrial part lead concentration: 22848 mg/kg
  Leaf lead concentration: 38601 mg/kg
[2]; [7]
  Terrestrial part lead accumulation amount: 1.95 g/m^2
[2]; [8]
  Terrestrial part lead accumulation amount: 2.34 g/m^2
[2]; [9]
  Terrestrial part lead accumulation amount: 5.99 g/m^2
[2]; [10]
  Terrestrial part lead accumulation amount: 6.62 g/m^2
[3]; [11]
  Discoloration of leaf (number of individuals for which symptom was observed): 3
  Leaf drop (number of individuals for which symptom was observed): 1
  Wilting of leaf (number of individuals for which symptom was observed): 1
[3]; [12]
  Discoloration of leaf (number of individuals for which symptom was observed): 3
  Wilting of leaf (number of individuals for which symptom was observed): 1
[3]; [13]
  Discoloration of flower (number of individuals for which symptom was observed): 5
  Discoloration of leaf (number of individuals for which symptom was observed): 2
  Leaf drop (number of individuals for which symptom was observed): 2
  Wilting of leaf (number of individuals for which symptom was observed): 6
[3]; [14]
  Discoloration of flower (number of individuals for which symptom was observed): 9
  Discoloration of leaf (number of individuals for which symptom was observed): 9
  Leaf drop (number of individuals for which symptom was observed): 7
  Wilting of leaf (number of individuals for which symptom was observed): 9
  yellow leaves, spotting and discoloration of leaves, and discoloration of a flower: confirmed in all individuals
[3]; four days after addition, 20 mmol/kg soil, in words
  leaf drop: observed in almost all individuals
[3]; [15]
  discoloration of leaves: discoloration of leaves was observed
  leaf drop: confirmed partially

## tetrasodium L-glutamic acid diacetate [GLDA·4Na]
[1]; [4]
  lead dissolving out ability: high lead dissolving out ability
